We go through 1 compound from patent US7001736B1, “Pharmacogenetic methods for use in the treatment of nervous system diseases” (priority 1995, dated 2006).

Like-named read-outs stand apart in the source and are kept apart here.

The test system of one assay is AD patients. As to conditions: maximum dose, 40 to 160 mg/d over 30 weeks.
The subject of another assay is patients with AD. An excerpt:
In this example we characterize patients with AD recruited for a large multi center study of tacrine and to investigate the impact of apoE allele load on short-term outcomes in placebo-treated patients, short-term Tacrine™ treatment effects, and long-term treatment outcome. The patients were classified by sex and dosage.
The 30-week study was randomized, double-blind, placebo-controlled, parallel-group clinical trial conducted at 33 centers in the USA (see Knapp, M. J. et al. JAMA 271: 985–991 (1995) for complete methodology). Patients randomized to tacrine treatment received an initial dose of 40 mg/day (10 mg QID) and were force-titrated at 6-week intervals in increments of 40 mg to maximum dose levels of 80, 120, and 160 mg/day for Groups II, III, and IV, respectively. Group I received placebo for the entire 30 weeks. The protocol was approved by Institutional Review Boards for each study center and followed guidelines of the Declaration of Helsinki and Good Clinical Practices.
Patients eligible for the 30-week study were men and women, at least 50 years of age, meeting National Institute of Neurological and Communicative Disorders and Stroke (NINCDS) criteria for a diagnosis of probable AD. […] Disease severity at the time of study entry was defined mild to moderate based on Mini-Mental State Examination. (MMSE) scores between 10 and 26 inclusive. Written informed consent was obtained from care givers and patients or their legal representatives. Medications with known central nervous system effects were prohibited during double-blind treatment. Once patients completed or terminated from the double-blind phase of the study there were no restrictions on concurrent medications. Patients who stopped tacrine treatment could take other investigational drugs.
The ADAS-Cog is an objective test that evaluates memory, language, and praxis and is a sensitive measure of patient performance (maximum severity score of […]). A decrease in score indicates improvement.
Four comparisons of tacrine 160 mg/day versus placebo were conducted: (1) without adjusting for ApoE4; (2) adjusting for the presence or absence of ApoE4; (3) for patients with Apo E4; and (4) without Apo E4. The estimated treatment differences, 95% confidence intervals for the treatment differences, and parametric p-values were computed from an analysis of variance (ANOVA) that included effects for randomized treatment group (placebo, 80 mg/day, 120 mg/day, and 160 mg/day) and study site. An analysis of covariance (ANCOVA) for ADAS-Cog also included baseline score a covariant. Least-square means were used to estimate the effect of the E4 allele on Week 30 efficacy scores.
The change in ADAS-Cog scores at Week 30 were estimated for: (1) placebo patients with an E4 allele, (2) placebo patients without an E4 allele, (3) Tacrine™ 160 mg/day patients with an E4 allele, and (4) Tacrine™ 160 mg/day patients without an E4 allele using ANCOVA that adjusted for site and baseline score. Similarly, Week 30 CIBIC and FCCA scores were estimated using ANOVA adjusted for study site effects.

Description for AD patients: The patients selection done on the basis of presence and absence of drug response to the treatment. The Alzheimer's Disease Assessment Scale (ADAS) used to monitor treatment effects. […] The ADAS-cog is an objective test that evaluates memory, attention, reasoning, orientation and praxis: a decrease score over time (or a positive difference) indicates improvement (Rosen W. G. et al, 1984, Am. J. Psychiatr., 141:1356 1364). The AD total includes the cognitive and non-cognitive portion of the ADAS.
Each bar represents an individual subjects. Positive delta values (difference in AD score at the end minus AD score prior to drug treatment) indicate improvement in cognitive performance (ADcog) and in global performances (ADAS-total). Negative values represent patients who deteriorated over time and drug treatment. All the subjects are AD subjects, all were treated with the same drug, at the same level, for the same duration.

On to `Nc1c2c(nc3ccccc13)CCCC2` [Tacrine, tacrine], for which the “subjects showing improvement with tacrine administration (AD total)” value in the assay with AD patients (apoE4 negative AD subjects) is “more than 85%”. In addition, the “subjects worse following drug treatment (AD total)” value in the assay with AD patients (apoE4 positive AD subjects) amounted to 60%. The response to tacrine entry with patients with AD (men having two E4 alleles) and in the assay on patients with AD (women having two E4 alleles) was “do not respond” each time. For the same compound, the “% of subjects with an improvement of the ADAS-COG score by at least 5 points” value (“% of subjects” for short) with patients with AD (men, Tacrine high, E4/X) turned out to be 69%; in the assay on patients with AD (men, Tacrine high, EX/X) it was 29%; with patients with AD (men, Tacrine low, E4/4) it was 0%; in the assay on patients with AD (men, Tacrine low, E4/X), 14%; with patients with AD (men, Tacrine low, EX/X), 33%; in the assay with patients with AD (men, Tacrine mid, E4/4) it was 0%. In addition, the “% of subjects” value is listed as 34% with patients with AD (men, Tacrine mid, E4/X); 0% in the assay on patients with AD (men, Tacrine mid, EX/X); 20% in the assay with patients with AD (women, Tacrine high, E4/X); 43% with patients with AD (women, Tacrine high, EX/X); 0% in the assay with patients with AD (women, Tacrine low, E4/4); 20% with patients with AD (women, Tacrine low, E4/X). Further, the “% of subjects” value was found to be 0% in the assay on patients with AD (women, Tacrine mid, E4/4); 24% in the assay with patients with AD (women, Tacrine mid, E4/X); 67% in the assay on patients with AD (women, Tacrine mid, EX/X).
